According to patent publication US10844038B2, “1,2-dithiolane compounds useful in neuroprotection, autoimmune and cancer diseases and conditions” (SABILA BIOSCIENCES LLC, priority 2016, dated 2020):

Experiments:
[1] = molecular target: Bruton Tyrosine Kinase (BTK) (Homo sapiens (Human), UniProt Q06187); assay: Rabbit reticulocyte lysate assay (KinaseSeeker competition binding); details: read-out: IC50 Activity Levels Against Bruton Tyrosine Kinase: BTK
Method: 1. Rabbit Reticulocyte Lysate Assay Design:
KinaseSeeker is a homogeneous competition binding assay where the displacement of an active site dependent probe by an inhibitor is measured by a change in luminescence signal. Luminescence readout translates into a highly sensitive and robust assay with low background and minimal interference from test compounds.
10 mM stock solutions of test compounds were serially diluted in DMSO to make assay stocks. Prior to initiating IC50 determinations, the test compounds were evaluated for false positive against split-luciferase.
Each test compound was screened in duplicate against target kinase at 7 different concentrations. For kinase assays, Cfluc-kinase was translated along with Fos-Nfluc using a cell-free system (rabbit reticulocyte lysate) at 30° C. for 90 min. 24 uL aliquot of this lysate containing either 1 uL of DMSO (for no-inhibitor control) or compound solution in DMSO was incubated for 30 minutes at room temperature followed by 1 hour in presence of a kinase specific probe. 80 uL of luciferin assay reagent was added to each solution and luminescence was immediately measured on a luminometer.
The % Inhibition and % Activity Remaining was calculated using the following equation: % Inhibition=[(ALUControl−ALUSample)/ALUControl]×100 % Activity Remaining=100−% Inhibition
The % Activity was plotted against compound concentration and the IC50 was determined for each compound using a 7-point curve (Jester, B. W.; et. al. J. Am. Chem. Soc. 2010, 132, 11727-11735. Jester, B. W., et. al. J. Med. Chem. 2012, 55, 1526-1537). Biological activity of representative compounds of the disclosure are described in Table 5.

[2] = molecular target: FYN isoform (b) (Homo sapiens (Human), UniProt P06241); assay: Kinase binding assay CaPBA; details: read-out: IC50 Activity Levels Against FYN isoforms, YES1 and MEK5: FYN isoform (b)
Chain of FYN isoform (b) (P06241 other isoform, or with tags, fused parts or gaps): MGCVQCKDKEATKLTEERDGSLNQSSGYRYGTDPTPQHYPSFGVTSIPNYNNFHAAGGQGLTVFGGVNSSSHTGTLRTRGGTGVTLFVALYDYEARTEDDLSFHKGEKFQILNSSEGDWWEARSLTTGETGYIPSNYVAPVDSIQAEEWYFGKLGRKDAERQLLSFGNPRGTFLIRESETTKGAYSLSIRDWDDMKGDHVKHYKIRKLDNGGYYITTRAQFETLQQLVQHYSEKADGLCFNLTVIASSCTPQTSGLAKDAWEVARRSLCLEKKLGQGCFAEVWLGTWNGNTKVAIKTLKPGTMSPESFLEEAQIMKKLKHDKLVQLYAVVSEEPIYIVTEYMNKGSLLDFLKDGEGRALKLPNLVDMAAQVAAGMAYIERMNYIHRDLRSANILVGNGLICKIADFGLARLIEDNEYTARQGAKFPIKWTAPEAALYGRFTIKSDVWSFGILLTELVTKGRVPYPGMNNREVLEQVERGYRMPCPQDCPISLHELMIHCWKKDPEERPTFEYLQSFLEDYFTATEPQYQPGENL
Excerpt: (§1) 4. Kinase Binding Assay CaPBA:

[3] = molecular target: MEK5 (Homo sapiens (Human), UniProt Q13163); assay: Kinase binding assay CaPBA; details: read-out: IC50 Activity Levels Against FYN isoforms, YES1 and MEK5: MEK5
Excerpt: as §1

[4] = molecular target: T1, BRAF (Homo sapiens (Human), UniProt P15056); assay: KINOMEscan competition binding assay (Kd); details: read-out: Kd Values Against MAPK Pathway Kinases: BRAF
T1 sequence (P15056 whole entry): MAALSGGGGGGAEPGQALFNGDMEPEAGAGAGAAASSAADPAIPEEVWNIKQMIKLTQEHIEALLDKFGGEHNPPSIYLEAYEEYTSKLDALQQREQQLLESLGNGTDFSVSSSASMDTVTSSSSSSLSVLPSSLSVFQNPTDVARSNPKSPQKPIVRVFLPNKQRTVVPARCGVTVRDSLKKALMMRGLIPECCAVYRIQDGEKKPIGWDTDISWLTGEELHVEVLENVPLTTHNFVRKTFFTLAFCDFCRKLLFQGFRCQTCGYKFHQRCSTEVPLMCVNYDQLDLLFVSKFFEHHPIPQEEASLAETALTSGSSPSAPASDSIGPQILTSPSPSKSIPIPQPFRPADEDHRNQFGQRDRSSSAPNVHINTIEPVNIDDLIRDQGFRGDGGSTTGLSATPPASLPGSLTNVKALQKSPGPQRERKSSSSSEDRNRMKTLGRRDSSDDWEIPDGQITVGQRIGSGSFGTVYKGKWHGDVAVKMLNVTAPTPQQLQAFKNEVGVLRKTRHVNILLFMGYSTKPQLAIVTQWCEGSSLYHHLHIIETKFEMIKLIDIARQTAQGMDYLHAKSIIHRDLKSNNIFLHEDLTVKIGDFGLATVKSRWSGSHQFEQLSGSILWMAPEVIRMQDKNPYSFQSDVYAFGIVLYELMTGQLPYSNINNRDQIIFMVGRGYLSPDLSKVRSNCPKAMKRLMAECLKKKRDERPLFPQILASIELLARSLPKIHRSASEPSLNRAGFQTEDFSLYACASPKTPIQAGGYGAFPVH
Method: (§2) KINOMEscan™ is based on a competition binding assay that quantitatively measures the ability of a test compound of the invention to compete with an immobilized, active-site directed ligand. The Kinase assay is performed by combining three components: DNA-tagged kinase; immobilized ligand; and a test compound. The ability of the test compound to compete with the immobilized ligand is measured via quantitative PCR of the DNA tag.
(§3) For most assays, kinase-tagged T7 phage strains were prepared in an E. coli host derived from the BL21 strain. E. coli were grown to log-phase and infected with T7 phage and incubated with shaking at 32° C. until lysis. The lysates were centrifuged and filtered to remove cell debris. The remaining kinases were produced in HEK-293 cells and subsequently tagged with DNA for qPCR detection. Streptavidin-coated magnetic beads were treated with biotinylated small molecule ligands for 30 minutes at room temperature to generate affinity resins for kinase assays. The liganded beads were blocked with excess biotin and washed with blocking buffer (SeaBlock (Pierce), 1% BSA, 0.05% Tween 20, 1 mM DTT) to remove unbound ligand and to reduce nonspecific binding. […] All reactions were performed in polystyrene 96-well plates in a final volume of 0.135 ml. […] The kinase concentration in the eluates was measured by qPCR.

[5] = molecular target: MEK6 (Homo sapiens (Human), UniProt P52564); assay: KINOMEscan competition binding assay (Kd); details: read-out: Kd Values Against MEK Kinases Isoforms: MEK6
Chain of MEK6 (P52564 whole entry, canonical isoform): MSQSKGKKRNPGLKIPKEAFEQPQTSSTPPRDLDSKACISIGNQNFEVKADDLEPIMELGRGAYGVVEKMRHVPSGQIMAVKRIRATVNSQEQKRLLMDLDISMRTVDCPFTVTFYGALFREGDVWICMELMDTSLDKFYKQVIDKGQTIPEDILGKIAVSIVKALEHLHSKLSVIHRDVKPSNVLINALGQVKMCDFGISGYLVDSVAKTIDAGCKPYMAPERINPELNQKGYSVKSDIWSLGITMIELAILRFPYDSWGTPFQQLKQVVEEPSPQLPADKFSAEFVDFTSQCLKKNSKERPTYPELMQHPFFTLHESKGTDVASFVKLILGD
Method: as §2, §3

[6] = molecular target: MEK7 (Homo sapiens (Human), UniProt O14733); assay: KINOMEscan competition binding assay (Kd); details: read-out: Kd Values Against MEK Kinases Isoforms: MEK7
Chain of MEK7 (O14733 whole entry, canonical isoform): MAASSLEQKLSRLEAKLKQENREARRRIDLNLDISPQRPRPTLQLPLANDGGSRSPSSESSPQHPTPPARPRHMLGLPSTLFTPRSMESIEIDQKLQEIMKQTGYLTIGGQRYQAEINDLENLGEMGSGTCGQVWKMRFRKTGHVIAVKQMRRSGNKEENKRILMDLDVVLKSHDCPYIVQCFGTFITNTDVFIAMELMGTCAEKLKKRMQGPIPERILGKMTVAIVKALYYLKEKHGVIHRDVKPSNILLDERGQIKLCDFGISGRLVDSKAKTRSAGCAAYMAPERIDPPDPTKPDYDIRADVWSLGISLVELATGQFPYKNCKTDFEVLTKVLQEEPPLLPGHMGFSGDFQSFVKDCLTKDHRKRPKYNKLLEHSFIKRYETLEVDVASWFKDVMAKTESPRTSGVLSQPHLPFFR
Method: as §2, §3

[7] = molecular target: T1, BRAF; assay: Radioisotope filter binding assay; type: biochemical; details: read-out: IC50 Activity Levels Against MAPK Pathway Kinases: BRAF
Method: (§4) 3. Radioisotope Filter Binding Assay:
(§5) In this assay format, it directly detects the true product without the use of modified substrates or coupling enzymes (Uitdehaag, J. C., et al. Br. J. Pharmacol. 2012, 166, 858-876; Hastie, C. J., et al. Nat. Protoc. 2006, 1, 968-971) according to equation 1. Substrate+[γ−^33P]−ATP→^33P-Substrate+ADP eq 1
(§6) The protocol calls for test compound of the invention to be incubated with kinase, substrate, cofactors, and radio-isotope-labeled ATP (^33P-gamma-ATP). The reaction mixtures are then spotted onto filter papers which bind the radioisotope labeled catalytic product. Unreacted phosphate is removed via washing. The reagents used include base reaction buffer; 20 mM Hepes (pH 7.5), 10 mM MgCl2, 1 mM EGTA, 0.02% Brij35, 0.02 mg/ml BSA, 0.1 mM Na3VO4, 2 mM DTT, 1% DMSO. The reaction procedure include the following steps: (1) prepare indicated substrate in freshly prepared base reaction buffer, (2) deliver any required cofactors to the substrate solution above, (3) deliver indicated kinase into the substrate solution and gently mix, (4) deliver compounds in DMSO into the kinase reaction mixture by Acoustic technology (Echo550; nanoliter range), incubate for 20 minutes at room temperature, (5) deliver ^33P-ATP (specific activity 10 μCi/μL) into the reaction mixture to initiate the reaction, (6) incubate kinase reaction for 2 hours at room temperature, (7) reactions are spotted onto P81 ion exchange paper, (8) detect kinase activity by filter-binding method.

[8] = molecular target: HER4 (Homo sapiens (Human), UniProt Q15303); assay: Radioisotope filter binding assay; type: biochemical; details: read-out: IC50 Activity Levels Against RTKs (c-Kit, RET, HER4) and AurA, CHK2 Kinases: HER4
Method: as §4, §5, §6

[9] = molecular target: KDR/VEGFR2 (Homo sapiens (Human), UniProt P35968); assay: Radioisotope filter binding assay; type: biochemical; details: read-out: IC50 Activity Levels Against MAPK Pathway Kinases: KDR/VEGFR2
Method: as §4, §5, §6

[10] = molecular target: RET (Homo sapiens (Human), UniProt P07949); assay: Radioisotope filter binding assay; type: biochemical; details: read-out: IC50 Activity Levels Against RTKs (c-Kit, RET, HER4) and AurA, CHK2 Kinases: RET
Chain of RET (P07949 29-1114): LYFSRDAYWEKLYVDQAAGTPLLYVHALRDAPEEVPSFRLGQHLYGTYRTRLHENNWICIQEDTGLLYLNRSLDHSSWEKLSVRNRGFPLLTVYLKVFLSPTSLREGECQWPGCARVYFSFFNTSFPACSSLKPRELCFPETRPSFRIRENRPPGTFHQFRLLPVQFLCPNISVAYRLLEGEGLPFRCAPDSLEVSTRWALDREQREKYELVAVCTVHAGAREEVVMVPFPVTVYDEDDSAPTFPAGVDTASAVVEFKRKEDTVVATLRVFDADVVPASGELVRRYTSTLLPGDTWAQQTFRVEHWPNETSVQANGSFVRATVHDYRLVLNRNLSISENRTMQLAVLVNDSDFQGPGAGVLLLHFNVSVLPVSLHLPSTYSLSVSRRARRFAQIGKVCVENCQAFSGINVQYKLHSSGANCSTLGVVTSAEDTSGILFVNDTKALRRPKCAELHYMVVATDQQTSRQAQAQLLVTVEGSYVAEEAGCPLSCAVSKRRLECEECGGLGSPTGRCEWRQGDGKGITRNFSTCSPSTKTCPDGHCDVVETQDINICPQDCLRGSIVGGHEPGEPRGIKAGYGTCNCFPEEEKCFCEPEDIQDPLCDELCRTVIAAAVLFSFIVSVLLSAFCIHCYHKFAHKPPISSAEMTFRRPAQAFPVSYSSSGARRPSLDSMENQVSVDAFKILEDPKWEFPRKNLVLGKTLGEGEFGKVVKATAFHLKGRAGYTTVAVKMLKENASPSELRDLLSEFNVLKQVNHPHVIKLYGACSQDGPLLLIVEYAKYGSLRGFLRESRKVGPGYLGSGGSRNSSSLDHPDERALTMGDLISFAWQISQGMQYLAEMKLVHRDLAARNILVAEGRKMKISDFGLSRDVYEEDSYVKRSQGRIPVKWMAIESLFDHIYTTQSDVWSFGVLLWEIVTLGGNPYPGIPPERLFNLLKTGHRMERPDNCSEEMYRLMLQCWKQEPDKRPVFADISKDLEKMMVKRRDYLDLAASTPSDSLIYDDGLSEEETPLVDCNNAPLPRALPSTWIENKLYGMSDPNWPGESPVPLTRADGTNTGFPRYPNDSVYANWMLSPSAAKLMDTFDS
Method: as §4, §5, §6

[11] = molecular target: c-KIT (Homo sapiens (Human), UniProt P10721); assay: Radioisotope filter binding assay; type: biochemical; details: read-out: IC50 Activity Levels Against RTKs (c-Kit, RET, HER4) and AurA, CHK2 Kinases: c-KIT
Chain of c-KIT (P10721 26-976): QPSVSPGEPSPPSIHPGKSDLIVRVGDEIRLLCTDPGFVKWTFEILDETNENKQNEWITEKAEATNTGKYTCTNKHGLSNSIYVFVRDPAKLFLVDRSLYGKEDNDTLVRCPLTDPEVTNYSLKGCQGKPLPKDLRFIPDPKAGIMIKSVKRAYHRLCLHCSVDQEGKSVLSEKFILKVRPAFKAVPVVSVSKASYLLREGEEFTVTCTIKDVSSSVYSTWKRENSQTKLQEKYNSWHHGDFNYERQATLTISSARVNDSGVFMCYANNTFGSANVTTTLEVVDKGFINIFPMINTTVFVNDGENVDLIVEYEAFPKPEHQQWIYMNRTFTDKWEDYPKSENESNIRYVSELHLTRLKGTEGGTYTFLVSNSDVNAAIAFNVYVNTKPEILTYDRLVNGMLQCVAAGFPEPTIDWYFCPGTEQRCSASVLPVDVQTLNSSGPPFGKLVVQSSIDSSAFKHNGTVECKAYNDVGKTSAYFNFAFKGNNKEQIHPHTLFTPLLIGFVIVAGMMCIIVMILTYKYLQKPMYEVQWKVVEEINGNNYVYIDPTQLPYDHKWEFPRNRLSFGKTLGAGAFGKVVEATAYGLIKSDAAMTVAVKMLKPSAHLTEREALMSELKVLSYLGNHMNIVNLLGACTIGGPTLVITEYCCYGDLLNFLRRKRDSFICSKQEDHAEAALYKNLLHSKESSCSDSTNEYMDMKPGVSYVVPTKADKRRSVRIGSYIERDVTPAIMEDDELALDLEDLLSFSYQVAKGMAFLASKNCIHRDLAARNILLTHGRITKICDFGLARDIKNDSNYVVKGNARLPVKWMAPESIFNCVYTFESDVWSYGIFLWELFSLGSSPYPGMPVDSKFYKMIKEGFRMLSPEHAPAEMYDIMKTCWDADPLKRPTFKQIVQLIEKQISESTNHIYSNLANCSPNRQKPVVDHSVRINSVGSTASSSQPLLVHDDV
Method: as §4, §5, §6

Chain of Bruton Tyrosine Kinase (BTK) (Q06187 whole entry): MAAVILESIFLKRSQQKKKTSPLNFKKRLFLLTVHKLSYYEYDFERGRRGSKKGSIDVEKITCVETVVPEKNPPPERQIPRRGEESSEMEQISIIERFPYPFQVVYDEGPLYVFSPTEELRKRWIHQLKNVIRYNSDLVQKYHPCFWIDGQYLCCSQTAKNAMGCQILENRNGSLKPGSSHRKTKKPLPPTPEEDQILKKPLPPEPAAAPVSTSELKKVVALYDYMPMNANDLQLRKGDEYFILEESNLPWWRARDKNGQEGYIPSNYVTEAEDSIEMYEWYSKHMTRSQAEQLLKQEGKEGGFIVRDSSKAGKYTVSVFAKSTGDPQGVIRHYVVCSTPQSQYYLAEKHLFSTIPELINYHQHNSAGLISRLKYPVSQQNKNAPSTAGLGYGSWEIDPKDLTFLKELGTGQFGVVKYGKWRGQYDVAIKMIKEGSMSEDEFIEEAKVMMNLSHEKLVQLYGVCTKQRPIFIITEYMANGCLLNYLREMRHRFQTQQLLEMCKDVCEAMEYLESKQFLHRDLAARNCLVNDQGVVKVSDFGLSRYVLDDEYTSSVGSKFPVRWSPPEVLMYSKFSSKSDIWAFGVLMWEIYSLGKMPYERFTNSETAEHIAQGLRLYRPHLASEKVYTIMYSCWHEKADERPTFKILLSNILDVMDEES

IC50 [1] | IC50 [2] | IC50 [3] | Kd [4] | Kd [5] | Kd [6] | IC50 [7] | IC50 [8] | IC50 [9] | IC50 [10] | IC50 [11] | SMILES
1 to 10 µM | 0.005 to 0.099 µM |  |  |  |  |  |  |  |  |  | Nc1ncnc2c1c(-c1ccc(Oc3ccccc3)cc1)nn2C[C@@H]1SSC[C@H]1O [43 A.]
0.1 to 0.999 µM | 0.005 to 0.099 µM | 1 to 10 µM |  |  |  |  |  |  |  |  | Nc1ncnc2c1c(-c1ccc(Oc3ccccc3)cc1)nn2C[C@H]1SSC[C@@H]1O [43 B.]
1 to 10 µM |  |  | 1 to 10 µM | 1 to 10 µM | 1 to 10 µM | 1 to 10 µM | 1 to 10 µM | 1 to 10 µM | 0.1 to 0.999 µM | 1 to 10 µM | Nc1ncnc2c1c(-c1ccc(Oc3ccccc3)cc1)nn2C[C@@H]1SSC[C@@H]1O [46 A.]
1 to 10 µM |  | 1 to 10 µM | 1 to 10 µM | 1 to 10 µM | 1 to 10 µM | 1 to 10 µM | 0.005 to 0.099 µM | 1 to 10 µM | 1 to 10 µM | 1 to 10 µM | Nc1ncnc2c1c(-c1ccc(Oc3ccccc3)cc1)nn2C[C@H]1SSC[C@H]1O [46 B.]
